Reference: article doi:10.1101/2025.02.20.639278v1, “Discovery of inhibitors for bacterial Arr enzymes ADP-ribosylating and inactivating rifamycin antibiotics” (biorxiv, 2025)

Columns and labels:
PaArr [1] = molecular target: T1, PaArr (Pseudomonas aeruginosa, UniProt O87490); assay: fluorescent NAD+ conversion assay; format: biochemical
T1 construct: gene arr-2; class 1 integron gene; codon-optimized; His6-MBP tag cut off with TEV; E. coli BL21(DE3); monomer

MsArr = molecular target: T2, MsArr (Mycolicibacterium smegmatis, UniProt A0QRS5, V47I/Y72F); assay: fluorescent NAD+ conversion assay; format: biochemical
T2 construct: gene MSMEG_1221; V47I Y72F variant gene; His6-MBP tag cut off with TEV; E. coli BL21(DE3)

MaArr [2] = molecular target: T3, MaArr (Mycobacteroides abscessus, UniProt B1MH05); assay: fluorescent NAD+ conversion assay; format: biochemical
T3 construct: gene MAB_0591; chromosomal gene; codon-optimized; His6-MBP tag cut off with TEV; E. coli BL21(DE3)

PaArr [3] = molecular target: T1, PaArr; assay: fluorescent NAD+ conversion assay; format: biochemical; remark: listed apart in the source
SmArr = test system: T4, SmArr; assay: fluorescent NAD+ conversion assay; format: biochemical, Stenotrophomonas maltophilia; settings: 1 µM NAD+, 2 µM rifampicin, 50 mM PIPES pH 7.5, 0.01% Triton X-100, room temperature
T4 construct: gene arr; class 1 integron gene; codon-optimized; His6-MBP tag cut off with TEV; E. coli BL21(DE3)

PaArr [4] = molecular target: T1, PaArr; assay: X-ray crystal structure, […] Å; format: binding; settings: crystal with 1 mM rifampicin; an additional rifampicin molecule at crystal contacts, likely artifact
PARP2 = PARP2 (Homo sapiens, UniProt Q9UGN5); assay: human ADP-ribosyltransferase activity panel; format: biochemical
TNKS2 = molecular target: T5, TNKS2 (Homo sapiens, UniProt Q9H2K2); assay: human ADP-ribosyltransferase activity panel; format: biochemical
T5 sequence (Q9H2K2 1-1166): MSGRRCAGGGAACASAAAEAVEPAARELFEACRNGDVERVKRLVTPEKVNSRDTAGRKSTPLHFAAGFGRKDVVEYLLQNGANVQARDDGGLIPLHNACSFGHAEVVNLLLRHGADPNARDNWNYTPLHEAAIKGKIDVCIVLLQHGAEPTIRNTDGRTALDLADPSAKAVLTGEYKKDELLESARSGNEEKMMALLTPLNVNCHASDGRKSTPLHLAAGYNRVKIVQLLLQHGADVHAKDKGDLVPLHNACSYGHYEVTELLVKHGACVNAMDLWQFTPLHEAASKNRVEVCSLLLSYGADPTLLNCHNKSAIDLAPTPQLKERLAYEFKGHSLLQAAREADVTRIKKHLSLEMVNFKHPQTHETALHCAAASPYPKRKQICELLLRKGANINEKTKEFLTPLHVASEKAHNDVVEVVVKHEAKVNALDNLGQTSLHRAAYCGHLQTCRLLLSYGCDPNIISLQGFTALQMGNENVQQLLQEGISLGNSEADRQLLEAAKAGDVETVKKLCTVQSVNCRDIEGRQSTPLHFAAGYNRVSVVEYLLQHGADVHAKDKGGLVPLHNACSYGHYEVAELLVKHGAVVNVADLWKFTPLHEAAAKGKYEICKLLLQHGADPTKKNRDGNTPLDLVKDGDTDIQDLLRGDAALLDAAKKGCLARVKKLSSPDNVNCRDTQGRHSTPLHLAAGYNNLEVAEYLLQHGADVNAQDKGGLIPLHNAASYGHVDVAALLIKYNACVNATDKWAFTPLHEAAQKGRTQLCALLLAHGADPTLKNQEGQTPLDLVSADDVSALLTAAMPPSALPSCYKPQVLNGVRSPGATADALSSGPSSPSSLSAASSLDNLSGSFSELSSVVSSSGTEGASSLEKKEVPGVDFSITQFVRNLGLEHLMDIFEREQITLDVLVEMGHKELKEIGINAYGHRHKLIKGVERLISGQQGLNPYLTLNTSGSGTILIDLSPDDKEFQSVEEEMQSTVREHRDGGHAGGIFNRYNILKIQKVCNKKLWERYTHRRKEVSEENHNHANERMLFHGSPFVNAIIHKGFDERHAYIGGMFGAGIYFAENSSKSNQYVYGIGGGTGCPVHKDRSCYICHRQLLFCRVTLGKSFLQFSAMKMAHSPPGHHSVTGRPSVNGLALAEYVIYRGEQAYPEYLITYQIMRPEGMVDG

MaArr [5] = molecular target: T3, MaArr; assay: fluorescent NAD+ conversion assay; format: biochemical; remark: listed apart in the source

SMILES	IC50 (MsArr) [nM]	IC50 (PaArr [3]) [nM]	IC50 (SmArr) [nM]	other results
Nc1nc2ccc(Cl)cc2c(O)c1-c1ccccc1 [compound 1]	1300			inhibition at 100 µM (PaArr [1]): < 50%; inhibition at 100 µM (MaArr [2]): < 50%
O=c1c(O)c(-c2cc(O)c(O)c(O)c2)oc2cc(O)cc(O)c12 [compound 7]		470	1700	
CO[C@H]1/C=C/O[C@@]2(C)Oc3c(C)c(O)c4c(O)c(c(/C=N/N5CCN(C)CC5)c(O)c4c3C2=O)NC(=O)/C(C)=C\C=C\[C@H](C)[C@H](O)[C@@H](C)[C@@H](O)[C@@H](C)[C@H](OC(C)=O)[C@@H]1C [rifampicin]				X-ray crystal structure, 1.4 Å (PaArr [4]): In the crystal structure of PaArr, an additional rifampicin molecule stacks against these two areas
Oc1ccc(O)c2c1sc1nncn12 [compound 13, 13]			1200	
NS(=O)(=O)c1ccc(-c2nc3ccccc3c(=O)[nH]2)cc1 [compound 2]	2000	10000 to 100000	10000 to 100000	IC50 (PARP2): showed strong inhibition of TNKS2 and PARP2 as expected (Figure 3E); IC50 (TNKS2): showed strong inhibition of TNKS2 and PARP2 as expected (Figure 3E); IC50 (MaArr [5]): 10000 to 100000 nM
